Results from patent US6046238A, “Method for treating or preventing the spread of acne vulgaris” (TriStrata, Inc., priority 1999, dated 2000).
In brackets after ≈: the same amount, converted by molar mass. Entries after “also recorded” stand apart in the source; their conditions may differ. Read-outs that look alike come from different tables or passages of the source.

Columns and labels:
[1] = topical treatment of nail infections; assay type: in vivo, human; conditions: non-synergistic composition, twice daily
From the text: The participating subjects in the present study were instructed to apply twice daily the composition containing phenyl 2-acetoxyethanoic acid or diphenyl 2-acetoxyethanoic acid with or without clotrimazole as an additional antimicrobial agent.
In order to determine the antimicrobial effect of an aryl 2-acetoxyethanoicacid, a standard test method of Minimum Inhibitory Concentration (MIC) against the growth of 10 bacteria was used. To determine a prophylactic effect against the development of, as well as a topical effect in the treatment of, body foul door, eleven human subjects participated in this study. […] Scientific and test results are overviewed as follows.

[2] = tested on: Corynebacterium minutissium; assay: MIC Agar Dilution Test, Corynebacterium minutissium; assay type: cell-based; conditions: C. minutissium
From the text: (§1) The following strains of microorganisms were used in Minimum Inhibitory Concentration (MIC) tests for phenyl 2-acetoxyethanoic acid in this example and for benzoyl peroxide, chlorhexidine gluconate and triclosan in the following examples. In total, five strains were used for S. aureus, five strains were used for S. epidermidis, two strains were used for M. sedentarius, three strains were used for M. luteus, two strains were used for B. epidermis, three strains were used for C. minutissium, one strain was used for S. marcescens, three strains were used for P. aeruginosa, four strains were used for E. coli, and thirty-two strains were used for P. acnes.
(§2) Antimicrobial effects were determined based on MIC Agar Dilution Test utilizing Trypticase Soy Agar II (BBL) incorporation plates with and without 10% intralipid (Kabi Pharmacia Inc.). Initially, phenyl 2-acetoxyethanoic acid was prepared as a 2 mg/ml (0.2%) solution in water. This solution with serial dilution was incorporated into the test agar plates. The MIC test gave similar results when the same species but a different strain was used.
(§3) Under the same test conditions described in Example 1, benzoyl peroxide was prepared as a 2.5 mg/ml (0.25%) solution in water. This solution with serial dilution was incorporated into the test agar plates. Typical test results are shown as follows.
(§4) Under the same test conditions described in Example 1, chlorhexidine gluconate was prepared as a 2 mg/ml (0.2%) solution in water. This solution with serial dilution was incorporated into the test agar plates. Typical test results are shown as follows.
(§5) Under the same test conditions described in Example 1, triclosan was prepared as a 10 mg/ml (1%) solution in water. This solution with serial dilution was incorporated into the test agar plates. Typical test results are shown as follows.
(§6) Ten different species of bacteria were used in Minimum Inhibitory Concentration (MIC) tests. The bacteria include S. aureus, S. epidermidis,M. sedentarius, M. luteus, B. epidermis, C. minutissium, S. marcescens, P. aeruginosa, E. coli, and P. acnes. In addition various sources and strains of these bacteria were also included in the tests, and up to 32 different strains of P. acnes were used.
(§7) The test substance selected from phenyl 2-acetoxyethanoic acid, benzoyl peroxide, chlorhexidine gluconate and triclosan was dissolved in water, and the solution with serial dilution was incorporated into the test agar plates. The plates containing different concentrations of test substance were inoculated with a strain of bacterium. MIC is defined as the lowest concentration of the test substance in the plate in which there is no growth of the microorganism.

[3] = topical treatment of folliculitis and perifolliculitis; assay type: in vivo, human; conditions: 0.9%, twice daily; nine patients
Protocol: Nine patients having various degrees of folliculitis and perifolliculitis participated in this study. A test composition containing 0.9% phenyl 2-acetoxyethanoic acid or diphenyl 2-acetoxyethanoic acid was prepared by dissolving 0.9 g compound in 79.1 ml 2-propanol, 15 ml butane-1,3-diol and 5 ml nonoxynol-6. The composition was packaged in one-ounce bottles. The patients were instructed to apply the test composition twice daily on the infected skin lesions and involved areas. Topical applications were continued up to 8 weeks.

[4] = tested on: Propionibacterium acnes; assay: MIC Agar Dilution Test, Propionibacterium acnes; assay type: cell-based; conditions: for MIC: Cutibacterium acnes
From the text: as §1, §2, §3, §4, §5, §6, §7

[5] = tested on: Serratia marcescens; assay: MIC Agar Dilution Test, Serratia marcescens; assay type: cell-based; conditions: S. marcescens
From the text: as §1, §2, §3, §4, §5, §6, §7

[6] = prophylactic effect in preventing the development of axillary foul odor; assay type: in vivo, human; conditions: Example 5; 0.5% solution, topical; one person; up to 24 hours
Protocol: A typical test for prophylactic effect in preventing the development of axillary foul odor was carried out as follows. A test composition was prepared by dissolving 0.5 g of phenyl 2-acetoxyethanoic acid or diphenyl 2-acetoxyethanoic acid in 70 ml of ethanol and 30 ml of propylene glycol. The control vehicle was prepared by mixing 70 ml of ethanol and 30 ml of propylene glycol. A human subject was instructed to take a shower in the morning using ordinary soap to clean the body surfaces. After the skin was dried, the test composition was topically applied to the left underarm area only. The vehicle control was topically applied to the right underarm area. Both underarm areas were monitored by the subject and at least one other person approximately every 8 hours to determine whether the test composition had any prophylactic effect in preventing the development of underarm foul odor in the left axilla as compared to the vehicle alone on the right control armpit.
Presence or substantial absence of foul odor, detected by smell, was adopted as the criteria for ineffectiveness or effectiveness of the test composition.
A total of seven subjects (four females; three males) participated in several studies. Most of these subjects could not use existing commercial products of antiperspirants or deodorants because of severe irritation after topical application. […]

[7] = tested on: Staphylococcus aureus; assay: MIC Agar Dilution Test, Staphylococcus aureus; assay type: cell-based; conditions: S. aureus
From the text: as §1, §2, §3, §4, §5, §6, §7

[8] = tested on: Pseudomonas aeruginosa; assay: MIC Agar Dilution Test, Pseudomonas aeruginosa; assay type: cell-based; conditions: P. aeruginosa
From the text: as §1, §2, §3, §4, §5, §6, §7

[9] = tested on: Micrococcus sedentarius; assay: MIC Agar Dilution Test, Micrococcus sedentarius; assay type: cell-based; conditions: Kytococcus sedentarius, M. sedentarius
From the text: as §1, §2, §3, §4, §5, §6, §7

[10] = 10% intralipid, read-out: MIC Lipid
[11] = no lipid, read-out: MIC No Lipid

Question: What does the source list for `CC(=O)OC(C(=O)O)c1ccccc1` (stereo not shown) [phenyl 2-acetoxyethanoic acid]?
Answer: disappearance of nail infections [1]: usually disappeared within one to several months; MIC [2, 10]: 500 µg/mL (≈ 2570 µM); MIC [2, 11]: 500 µg/mL (≈ 2570 µM); deeper lesions of papules [3]: eradicated or substantially improved after 4 to 8 weeks of topical applications; superficial folliculitis and perifolliculitis lesions [3]: eradicated or substantially improved after a few days of topical applications; MIC ([4]; P. acnes, 10% intralipid, read-out: MIC Lipid): 250 µg/mL (≈ 1290 µM); MIC ([4]; P. acnes, no lipid, read-out: MIC No Lipid): 250 µg/mL (≈ 1290 µM); MIC ([4]; even in the presence of 10% lipid materials, read-out: concentration specifically effective against the growth of P. acnes): 250 µg/mL; MIC ([4]; in the presence of 10% lipid materials, read-out: concentration effective against P. acnes): 250 µg/mL; inhibitory effect against P. acnes, compared ([4]; with or without lipid materials, same test conditions as comparators): most active and effective compound against P. acnes; MIC [5, 10]: 1000 µg/mL (≈ 5150 µM); MIC [5, 11]: 1000 µg/mL (≈ 5150 µM); prevention of axillary foul odor (left underarm) [6]: did not produce any detectable odor, even after 24 hours; also recorded: substantially effective in preventing the development of axillary foul odor; MIC [7, 10]: 500 µg/mL (≈ 2570 µM); MIC [7, 11]: 500 µg/mL (≈ 2570 µM); MIC [8, 10]: 1000 µg/mL (≈ 5150 µM); MIC [8, 11]: 1000 µg/mL (≈ 5150 µM); MIC [9, 10]: 500 µg/mL (≈ 2570 µM); MIC [9, 11]: 500 µg/mL (≈ 2570 µM)
